Values of other authors, collected in PMC4959786 (Clinical immunology (Orlando, Fla.), 2015).

Molecular target: I-A^q (Mus musculus, UniProt P04227+P06342)
Conditions: result in words, earlier work

I-A^q, sequence (P04227 whole entry, looked up): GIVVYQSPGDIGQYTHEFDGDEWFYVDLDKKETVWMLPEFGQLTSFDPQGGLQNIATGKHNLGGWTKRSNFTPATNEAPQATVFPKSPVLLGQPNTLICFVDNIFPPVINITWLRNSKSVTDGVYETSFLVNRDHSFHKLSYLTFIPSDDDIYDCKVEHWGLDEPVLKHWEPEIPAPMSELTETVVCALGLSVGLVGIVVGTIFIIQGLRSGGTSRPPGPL
I-A^q, sequence (P06342 whole entry, looked up): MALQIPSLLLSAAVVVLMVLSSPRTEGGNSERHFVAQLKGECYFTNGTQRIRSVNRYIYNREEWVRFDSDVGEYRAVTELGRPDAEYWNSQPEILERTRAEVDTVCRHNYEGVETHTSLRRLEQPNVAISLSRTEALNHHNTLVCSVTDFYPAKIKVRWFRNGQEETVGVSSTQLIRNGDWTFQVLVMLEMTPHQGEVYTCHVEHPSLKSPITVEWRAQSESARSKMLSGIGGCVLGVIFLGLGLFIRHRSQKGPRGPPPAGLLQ

- binding to I-A^q (ref [5], [6]): binds very weakly
- binding affinity for I-A^q (ref [6]): very weak binding affinity
Sequence: GEBGABGNKGEQGPKGEBGP [A9]
